Test results taken from publication PMC10364322, “Evaluation of chronic drug-induced electrophysiological and cytotoxic effects using human-induced pluripotent stem cell-derived cardiomyocytes (hiPSC-CMs)” (Frontiers in Pharmacology, 2023).

Legend:
[1] = system: hiPSC-CMs (iCell-Cardiomyocytes^2); experiment: MEA impedance (cytotoxicity readout) in hiPSC-CMs
[2] = cited from earlier work; for Free Cmax: free therapeutic Cmax in humans, ref FDA-approved drug packages, PharmaPendium

SMILES | Imp (impedance), % change from baseline ([1]; 0.3 µM, 2h) [%] | Imp (impedance), % change from baseline ([1]; 0.3 µM, 24h) [%] | Imp (impedance), % change from baseline ([1]; 0.3 µM, 48h) [%] | Imp (impedance), % change from baseline ([1]; 0.3 µM, 72h) [%] | Imp (impedance), % change from baseline ([1]; 0.3 µM, 96h) [%] | Imp (impedance), % change from baseline ([1]; 1 µM, 2h) [%] | Imp (impedance), % change from baseline ([1]; 1 µM, 24h) [%] | Imp (impedance), % change from baseline ([1]; 1 µM, 48h) [%] | Imp (impedance), % change from baseline ([1]; 1 µM, 72h) [%] | Imp (impedance), % change from baseline ([1]; 1 µM, 96h) [%] | Imp (impedance), % change from baseline ([1]; 3 µM, 72h) [%] | Imp (impedance), % change from baseline ([1]; 3 µM, 96h) [%] | Imp (impedance), % change from baseline ([1]; 3 µM, 2h) [%] | Imp (impedance), % change from baseline ([1]; 3 µM, 24h) [%] | Imp (impedance), % change from baseline ([1]; 3 µM, 48h) [%] | Free Cmax [2] [nM] | Imp (impedance), % change from baseline ([1]; 10 µM, 2h) [%] | Imp (impedance), % change from baseline ([1]; 10 µM, 24h) [%] | Imp (impedance), % change from baseline ([1]; 10 µM, 48h) [%] | Imp (impedance), % change from baseline ([1]; 10 µM, 72h) [%] | also measured
N=C(N)c1ccc(OCCCCCOc2ccc(C(=N)N)cc2)cc1 [Pentamidine] | 6±2 | -3±4 | -4±4 | -8±5 | -5±3 | 5±2 | -4±3 | -6±4 | -13±3 | -18±5 | -28±8 | -42±9 | 5±2 | -4±2 | -7±6 | 200 | – | – | – | – | Imp (impedance), % change from baseline ([1]; 0.1 µM, 2h): 6±3%; Imp (impedance), % change from baseline ([1]; 0.1 µM, 24h): -2±5%; Imp (impedance), % change from baseline ([1]; 0.1 µM, 48h): -5±4%; Imp (impedance), % change from baseline ([1]; 0.1 µM, 72h): -6±3%; Imp (impedance), % change from baseline ([1]; 0.1 µM, 96h): 1±6%; exposures in patients (TdP cases after intravenous administration) ([2]; prolonged intravenous administration, ref Sands et al., 1985, Conte et al., 1986, Cordes et al., 2005): 1 to 5 µM
Cc1cn(-c2cc(NC(=O)c3ccc(C)c(Nc4nccc(-c5cccnc5)n4)c3)cc(C(F)(F)F)c2)cn1 [Nilotinib] | -1±3 | -11±5 | 3±7 | -2±4 | -1±5 | 4±7 | -8±6 | 13±17 | 2±5 | 4±14 | – | – | – | – | – | 100 | – | – | – | – | Imp (impedance), % change from baseline ([1]; 0.01 µM, 2h): -2±3%; Imp (impedance), % change from baseline ([1]; 0.01 µM, 24h): -14±3%; Imp (impedance), % change from baseline ([1]; 0.01 µM, 48h): -4±4%; Imp (impedance), % change from baseline ([1]; 0.01 µM, 72h): -4±15%; Imp (impedance), % change from baseline ([1]; 0.01 µM, 96h): -3±15%; Imp (impedance), % change from baseline ([1]; 0.1 µM, 2h): -2±3%; Imp (impedance), % change from baseline ([1]; 0.1 µM, 24h): -12±3%; Imp (impedance), % change from baseline ([1]; 0.1 µM, 48h): 4±10%; Imp (impedance), % change from baseline ([1]; 0.1 µM, 72h): -6±4%; Imp (impedance), % change from baseline ([1]; 0.1 µM, 96h): -1±5%; effect on impedance ([1]; all concentrations tested, up to 96 h): without relevant changes to impedance
CC(C)(Sc1cc(C(C)(C)C)c(O)c(C(C)(C)C)c1)Sc1cc(C(C)(C)C)c(O)c(C(C)(C)C)c1 [Probucol] | 2±2 | -4±4 | -3±7 | -4±6 | -3±10 | -1±2 | -6±4 | -3±3 | -8±3 | -2±5 | -10±2 | -7±2 | -2±3 | -7±4 | -5±4 | – | -3±1 | -7±4 | -4±4 | -12±3 | Imp (impedance), % change from baseline ([1]; 10 µM, 96h): -8±4%
COc1nc(N)nc2c1ncn2[C@@H]1O[C@H](COP(=O)(N[C@@H](C)C(=O)OCC(C)(C)C)Oc2cccc3ccccc23)[C@@H](O)[C@@]1(C)O (stereo partly shown) [BMS-986094] | -4±2 | -3±2 | -6±3 | -8±3 | -18±6 | -1±2 | -1±4 | -5±3 | -16±2 | -29±4 | -19±6 | -38±5 | 3±5 | 1±2 | -5±3 | – | 2±1 | 4±4 | 2±10 | -11±12 | Imp (impedance), % change from baseline ([1]; 10 µM, 96h): -41±20 %
C#Cc1cccc(Nc2ncnc3cc(OCCOC)c(OCCOC)cc23)c1 [Erlotinib] | 0±3 | -5±3 | -5±4 | -5±6 | -3±6 | 1±2 | -6±3 | -2±5 | -3±5 | 1±9 | -2±4 | 0±6 | 1±3 | -6±2 | -1±5 | 3900 | 5±4 | -17±2 | -13±3 | -13±3 | effect on impedance ([1]; 10 µM (highest concentration)): borderline decrease in impedance, which was statistically and physiologically significant only at the 24 h time point; Imp (impedance), % change from baseline ([1]; 10 µM, 96h): -10±2%
